Source: patent US12377110B2, “Fospropofol methods and compositions” (Epalex Corporation, priority 2019, dated 2025)
Several values for one entry are separate records, joined by “and”; a condition that tells them apart may be missing. Equal entries are not always repeated.

Columns and labels:
[1] = Study No. 15-4 toxicokinetics of fospropofol and propofol in plasma; assay type: in vivo, Beagle dogs; conditions: for Tmax: read-out: Fospropofol Tmax; for AUC(0-t): read-out: Fospropofol AUC0-6 hr
Method: The purpose of Study No. 15-4 (GLP) was to determine the potential toxicity of fospropofol in Beagle dogs when administered once daily by oral gavage for 14 days. […] Because the treatment-related clinical observations (consistent with the expected transient sedative actions of fospropofol) and effects on hematology and clinical chemistry parameters were considered nonadverse, the NOAEL was determined to be 160 mg/kg/day (3200 mg/m^2/day).

[2] = Study A16 Part 2: PK of a single dose of 1200 mg fospropofol disodium following a high-fat meal; assay type: in vivo, human
Method: Part 2 of Study A16 was a double-blind, placebo-controlled, single-close pilot study to investigate the PK, safety, and tolerability of 1200 mg of fospropofol disodium administered to healthy adult men and women following a high-fat meal.
Subjects were healthy adults (age 18-55 years inclusive, BMI 18-29.9 kg/m^2). A separate cohort of 15 subjects was randomly assigned to receive a single oral dose of either fospropofol disodium (n=12) or matching placebo (n=3) within 30 minutes (±1 minute) after the start of a standardized high-fat meal.
Subjects were admitted to the clinical unit for an overnight fast (Day −1), administered study drug on Day 1 within 30 minutes of the start a standardized high-fat meal, and remained in the clinical unit until Day 2.
Fospropofol disodium was formulated as powder in 6 HPMC capsules, each capsule containing 200 mg of fospropofol disodium (weight adjusted for water content). Placebo was administered as 6 matching capsules.

[3] = Study A17: PK of fospropofol and propofol after single oral dose of fospropofol disodium 800 mg in subjects with migraine; conditions: for AUC / Cmax / Tmax: female, human, po, 800 mg; for Cmax: Fospropofol Cmax; for Tmax: Fospropofol Tmax
Method: The study is planned to complete approximately 85 subjects. • Enrolled subjects will be asked to come to the study site for treatment when they experience a qualifying migraine headache. Dosing must occur within 4 hours after onset of the migraine symptoms. If treatment at the study site is not feasible or practicable within 4 hours after onset of migraine symptoms, subjects should use their usual medication for that headache and attempt to visit the clinic for treatment as soon as possible (within 4 hours) after onset of their next migraine headache. Dosing must occur within 60 days after enrollment (see Post-enrollment Period below). • At clinic check-in for treatment, study personnel will verify eligibility for closing regarding the criteria for a qualifying headache and adherence to post-enrollment study restrictions (see Eligibility for Dosing below). • Treatment will consist of a single oral dose of fospropofol disodium. […] Because the prevalence of migraine headaches is higher in women than in men, efforts will be made to enroll at least 50% women. • Subjects must meet the general inclusion and exclusion criteria listed below (Inclusion Criteria and Exclusion Criteria) at screening to be enrolled in the study. To be eligible for fospropofol disodium treatment after onset of a migraine headache, enrolled subjects must meet criteria specific to the presenting headache at clinic check-in (see Qualifying Headache below) and adhere to study restrictions specific to the period between enrollment and clinic check-in (see Post-enrollment Restrictions below). • Inclusion Criteria Subjects must meet all of the following criteria at screening to be enrolled in the study: • 1. Written informed consent approved by the Institutional Review Board (IRB) given before any study-related procedures are performed • 2. […] Complete abstinence alone can be used as a method of contraception. • 6. […] Able to comprehend the nature of the study, capable of giving written informed consent, and able to communicate effectively with clinic staff (as assessed by the investigator) • 8. Available to volunteer for the entire study duration and willing to adhere to all protocol requirements, including the post-enrollment restrictions (see Post-enrollment Restrictions below) • 9. Agrees not to post any information related to the study on any website or social media site (e.g., Facebook, Twitter, LinkedIn, Google+, etc.) until the entire trial has been completed • 10. Willing to forgo rescue medicine for at least 2 hours after initiation of treatment with study drug (see In-Clinic Rescue Medicine) • Exclusion Criteria Subjects to whom any of the following criteria apply at screening will be excluded: • 1. History of hemiplegic migraine (at any time in the past). • 2. History of headaches of any type occurring on ≥15 days/month during any of the 3 months prior to screening. • 3.

[4] = female, beagle, dog, plasma, po, 50 mg/kg, oral gavage fospropofol disodium, Female, 50 mg/kg, Day 1
[5] = female, beagle, dog, plasma, po, 50 mg/kg, oral gavage fospropofol disodium, Female, 50 mg/kg, Day 14
[6] = female, beagle, dog, plasma, po, 100 mg/kg, oral gavage fospropofol disodium, Female, 100 mg/kg, Day 1
[7] = female, beagle, dog, plasma, po, 100 mg/kg, oral gavage fospropofol disodium, Female, 100 mg/kg, Day 14
[8] = female, beagle, dog, plasma, po, 160 mg/kg, oral gavage fospropofol disodium, Female, 160 mg/kg, Day 1
[9] = female, beagle, dog, plasma, po, 160 mg/kg, oral gavage fospropofol disodium, Female, 160 mg/kg, Day 14
[10] = male, beagle, dog, plasma, po, 50 mg/kg, oral gavage fospropofol disodium, Male, 50 mg/kg, Day 1
[11] = male, beagle, dog, plasma, po, 50 mg/kg, oral gavage fospropofol disodium, Male, 50 mg/kg, Day 14
[12] = male, beagle, dog, plasma, po, 100 mg/kg, oral gavage fospropofol disodium, Male, 100 mg/kg, Day 1
[13] = male, beagle, dog, plasma, po, 100 mg/kg, oral gavage fospropofol disodium, Male, 100 mg/kg, Day 14
[14] = male, beagle, dog, plasma, po, 160 mg/kg, oral gavage fospropofol disodium, Male, 160 mg/kg, Day 1
[15] = male, beagle, dog, plasma, po, 160 mg/kg, oral gavage fospropofol disodium, Male, 160 mg/kg, Day 14
[16] = A17 vs. A16 800 mg Cohort, excluding subject 308
[17] = Study A17 vs. A16 800 mg Cohort, excluding subject 308
[18] = plasma, Mean, Mean without Subject 6008 (below limit of quantitation at all time points), Fospropofol Disodium 800 mg oral
[19] = plasma, Mean, N = 12 migraine subjects, Fospropofol Disodium 800 mg oral
[20] = individual migraine subjects, Fospropofol Disodium 800 mg oral
[21] = plasma, individual migraine subjects (N = 12), Fospropofol Disodium 800 mg oral

Compound: CC(C)c1cccc(C(C)C)c1OCOP(=O)(O)O [fospropofol, (2,6-diisopropylphenoxy)methyl dihydrogen phosphate]
- Sex differences in fospropofol Cmax or AUC0-6h ([1]; 50, 100, and 160 mg/kg/day for 14 days): no clear sex differences
- Tmax ([1]; Beagle, dog, plasma, oral, range over all groups): 5 to 60 min
- Increase of fospropofol Cmax and AUC0-6hr with dose ([1]; Days 1 and 14, males and females (except females on Day 14)): less than close proportional
- half-life ([1]; both sexes, Beagle, dog, plasma, oral, males and females, read-out: Fospropofol apparent individual terminal half-lives): 18 to 36 min
- Cmax [1, 4]: 3680 ng/mL
- AUC(0-t) [1, 4]: 4710 ng·h/mL
- Tmax [1, 4]: 30 to 60 min
- Cmax [1, 5]: 3770 ng/mL
- AUC(0-t) [1, 5]: 5730 ng·h/mL
- Tmax [1, 5]: 30 to 60 min
- Cmax [1, 6]: 10100 ng/mL
- AUC(0-t) [1, 6]: 11900 ng·h/mL
- Tmax [1, 6]: 15 to 30 min
- Cmax [1, 7]: 9310 ng/mL
- AUC(0-t) [1, 7]: 15100 ng·h/mL
- Tmax [1, 7]: 30 to 60 min
- Cmax [1, 8]: 7380 ng/mL
- AUC(0-t) [1, 8]: 11200 ng·h/mL
- Tmax [1, 8]: 15 to 60 min
- Cmax [1, 9]: 12700 ng/mL
- AUC(0-t) [1, 9]: 16000 ng·h/mL
- Tmax [1, 9]: 15 to 60 min
- Cmax [1, 10]: 5130 ng/mL
- AUC(0-t) [1, 10]: 7710 ng·h/mL
- Tmax [1, 10]: 30 to 60 min
- Cmax [1, 11]: 3300 ng/mL
- AUC(0-t) [1, 11]: 4860 ng·h/mL
- Tmax [1, 11]: 30 to 60 min
- Cmax [1, 12]: 9480 ng/mL
- AUC(0-t) [1, 12]: 11700 ng·h/mL
- Tmax [1, 12]: 30 to 60 min
- Cmax [1, 13]: 6340 ng/mL
- AUC(0-t) [1, 13]: 6340 ng·h/mL
- Tmax [1, 13]: 15 to 60 min
- Cmax [1, 14]: 10000 ng/mL
- AUC(0-t) [1, 14]: 13500 ng·h/mL
- Tmax [1, 14]: 15 to 60 min
- Cmax [1, 15]: 6970 ng/mL
- AUC(0-t) [1, 15]: 9000 ng·h/mL
- Tmax [1, 15]: 4.98 to 60 min
- Effect of high-fat meal on exposure ([2]; 1200 mg within 30 minutes after the start of a high-fat meal): significant reduction in exposure
- Mean exposure to fospropofol (both Cmax and AUC) under fed conditions relative to fasting ([2]; 1200 mg, high-fat meal vs fasting): approximately 24%
- Tmax ([2]; both sexes, human, plasma, oral, 1200 mg, fed, no appreciable effect, read-out: Fospropofol Tmax (median)): 20 min
- AUC(0-inf) ([2]; both sexes, human, plasma, oral fospropofol disodium 1200 mg, Fed (Cohort 8), n = 10/12, mean, read-out: Fospropofol AUC0-∞): 1080 ng·h/mL
- half-life ([2]; both sexes, human, plasma, oral fospropofol disodium 1200 mg, Fed (Cohort 8), n = 10/12, mean, read-out: Fospropofol t1/2 (converted)): 15.6 min
- Cmax ([2]; both sexes, human, plasma, oral fospropofol disodium 1200 mg, Fed (Cohort 8), n= 12, mean): 1790 ng/mL
- AUC(0-t) ([2]; both sexes, human, plasma, oral fospropofol disodium 1200 mg, Fed (Cohort 8), n= 12, mean, read-out: Fospropofol AUC0-T): 993 ng·h/mL
- Tmax ([2]; both sexes, human, plasma, oral fospropofol disodium 1200 mg, Fed (Cohort 8), n= 12, median, read-out: Fospropofol Tmax): 19.8 min
- Fospropofol CL/F ([2]; oral fospropofol disodium 1200 mg, Fed (Cohort 8), n = 10/12, mean): 4122 L/h
- Ratio of mean fospropofol Auc1, migraine subjects (all female) to female healthy volunteers [3, 16]: 110%
- Ratio of mean fospropofol Auc2, migraine subjects (all female) to female healthy volunteers [3, 16]: 116%
- Ratio of mean fospropofol Auc4, migraine subjects (all female) to female healthy volunteers [3, 16]: 120%
- Ratio of mean fospropofol Cmax, migraine subjects (all female) to female healthy volunteers [3, 16]: 94%
- Ratio of mean fospropofol Tmax, migraine subjects (all female) to female healthy volunteers [3, 16]: 89%
- Ratio of mean fospropofol Auc1, migraine subjects to healthy volunteers [3, 17]: 121%
- Ratio of mean fospropofol Auc2, migraine subjects to healthy volunteers [3, 17]: 130%
- Ratio of mean fospropofol Auc4, migraine subjects to healthy volunteers [3, 17]: 135%
- Ratio of mean fospropofol Cmax, migraine subjects to healthy volunteers [3, 17]: 105%
- Ratio of mean fospropofol Tmax, migraine subjects to healthy volunteers [3, 17]: 98%
- AUC ([3]; plasma, Fospropofol AUC1, Mean, Mean without Subject 6008 (below limit of quantitation at all time points), Fospropofol Disodium 800 mg oral): 3360 ng·h/mL
- AUC ([3]; plasma, Fospropofol AUC1, Mean, Mean, N = 12 migraine subjects, Fospropofol Disodium 800 mg oral): 3080 ng·h/mL
- AUC ([3]; plasma, Fospropofol AUC2, Mean, Mean without Subject 6008 (below limit of quantitation at all time points), Fospropofol Disodium 800 mg oral): 4310 ng·h/mL
- AUC ([3]; plasma, Fospropofol AUC2, Mean, Mean, N = 12 migraine subjects, Fospropofol Disodium 800 mg oral): 3950 ng·h/mL
- AUC ([3]; plasma, Fospropofol AUC4, Mean, Mean without Subject 6008 (below limit of quantitation at all time points), Fospropofol Disodium 800 mg oral): 4650 ng·h/mL
- AUC ([3]; plasma, Fospropofol AUC4, Mean, Mean, N = 12 migraine subjects, Fospropofol Disodium 800 mg oral): 4260 ng·h/mL
- Cmax [3, 18]: 6320 ng/mL
- Cmax [3, 19]: 5790 ng/mL
- Tmax [3, 18]: 19.8 min
- Tmax [3, 19]: 19.8 min
- Fospropofol AUC4 [3, 20]: 3837.04 ng·h/mL and 1469.88 ng·h/mL and 4303.32 ng·h/mL and 4814.33 ng·h/mL and 6942.73 ng·h/mL and 1702.48 ng·h/mL and 8572.36 ng·h/mL and 1248.45 ng·h/mL and 3152.5 ng·h/mL and 7130.22 ng·h/mL and 7986.57 ng·h/mL
- Fospropofol Cmax [3, 20]: 5163.62 ng/mL and 3285.03 ng/mL and 5036.79 ng/mL and 7527.26 ng/mL and 10597.13 ng/mL and 2219.93 ng/mL and 8307.86 ng/mL and 1419.1 ng/mL and 4507.39 ng/mL and 11463.93 ng/mL and 10001.18 ng/mL
- Fospropofol Tmax [3, 20]: 10 min and 40 min
- Fospropofol AUC 1 hr [3, 21]: 723.61 ng·h/mL and 2418.57 ng·h/mL and 5268.76 ng·h/mL and 6456.6 ng·h/mL and 2684.78 ng·h/mL and 1315.43 ng·h/mL and 3262.09 ng·h/mL and 3522.27 ng·h/mL and 5673.87 ng·h/mL and 1193.95 ng·h/mL and 4461.52 ng·h/mL
- Fospropofol AUC 2 hr [3, 21]: 1007.69 ng·h/mL and 3045.22 ng·h/mL and 6730.95 ng·h/mL and 7756.33 ng·h/mL and 3666.13 ng·h/mL and 1421.1 ng·h/mL and 4174.88 ng·h/mL and 4386.97 ng·h/mL and 6702.97 ng·h/mL and 1610.51 ng·h/mL and 6945.81 ng·h/mL
